Test systems include HCC 2998; MDA-MB-435; BT-549; CCRF-CEM; ACHN; KM12; CAKI-1; LOX IMVI; NCI-H522; MDA-N; SW-620; DU-145; NCI/ADR-RES; HOP-62; NCI-H226; COLO 205; OVCAR-8; HCT-116; HT-29; SK-OV-3.
Holding throughout (test): inhibition of tumour cell growth, NCI panel, 48 h

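Where inhibition never reached the appropriate level, the endpoint shown equals the highest concentration tested. Otherwise, values were interpolated linearly from a five-concentration, 48-hour dose response in 96-well plates. Here, GI50 denotes the concentration required for 50% inhibition of growth.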 Calls of active or inactive are those of the source. Cut-off read from the data, not from the text of the source: active = GI50 up to about 1.1 µM and inactive = higher. Bounds are passed on as bounds.

For `N#Cc1c(Cl)cccc1Oc1ccc(S(=O)(=O)N/C(=N\O)Nc2ccc(Cl)cc2)cc1`, the GI50 was 14.7 µM (inactive) in the experiment on HCC 2998; 17.9 µM (inactive) in the experiment on MDA-MB-435; 16.4 µM (inactive) in the experiment with BT-549; 18.9 µM (inactive) with CCRF-CEM; 15.6 µM (inactive) in the experiment with ACHN; 17.2 µM (inactive) in the experiment with KM12. The GI50 is 15.5 µM (inactive) with CAKI-1; 16 µM (inactive) in the experiment with LOX IMVI; 18 µM (inactive) in the experiment with NCI-H522; 16.4 µM (inactive) in the experiment with MDA-N; 17.6 µM (inactive) with SW-620; 18.8 µM (inactive) with DU-145. The GI50 was 20.7 µM (inactive) with NCI/ADR-RES; 17.5 µM (inactive) in the experiment on HOP-62; 24.8 µM (inactive) in the experiment on NCI-H226; 18.2 µM (inactive) in the experiment on COLO 205; 18 µM (inactive) with OVCAR-8; 14.2 µM (inactive) in the experiment with HCT-116. The GI50 with HT-29 is 17.3 µM (inactive).
In the case of `Clc1cc(Cl)cc(/N=C/C=C/Nc2cc(Cl)cc(Cl)c2)c1`, the GI50 in the experiment on HCC 2998 was 15.2 µM (inactive); in the experiment on SK-OV-3, 35.5 µM (inactive); with MDA-MB-435 it was 18.6 µM (inactive); in the experiment on BT-549 it was 43.3 µM (inactive); with CCRF-CEM it was 20.8 µM (inactive); in the experiment with ACHN, 20.1 µM (inactive). In addition, the GI50 was 16.2 µM (inactive) in the experiment with KM12; 15.2 µM (inactive) with CAKI-1; 14.7 µM (inactive) with NCI-H522; 19.4 µM (inactive) in the experiment with MDA-N; 19 µM (inactive) in the experiment with SW-620; 21 µM (inactive) with DU-145. The GI50 is 16.4 µM (inactive) in the experiment on NCI/ADR-RES; 23.7 µM (inactive) with HOP-62; 14.4 µM (inactive) in the experiment on NCI-H226; 16.5 µM (inactive) with COLO 205; 20.4 µM (inactive) with OVCAR-8; 15.5 µM (inactive) in the experiment with HCT-116. Further, the GI50 in the experiment with HT-29 is 14.7 µM (inactive).
With `O=c1c2cc([N+](=O)[O-])cnc2sn1-c1ccc(Oc2ccccc2)cc1`, the GI50 in the experiment with HCC 2998 is > 100 µM (inactive); in the experiment with SK-OV-3 it was 19.8 µM (inactive); in the experiment with MDA-MB-435 it was 34 µM (inactive); with BT-549 it was 52.8 µM (inactive); with CCRF-CEM, 26.9 µM (inactive); in the experiment on ACHN, 53.1 µM (inactive). Further, the GI50 in the experiment on KM12 is 78.5 µM (inactive); in the experiment with LOX IMVI, 44.9 µM (inactive); with NCI-H522 it was 4.66 µM (inactive); in the experiment on MDA-N it was 78 µM (inactive); with SW-620, 57 µM (inactive); in the experiment on DU-145, 24.8 µM (inactive). In addition, the GI50 in the experiment on NCI/ADR-RES is 32.8 µM (inactive); in the experiment with HOP-62 it was 34.2 µM (inactive); in the experiment on NCI-H226 it was 45.2 µM (inactive); with COLO 205, > 100 µM (inactive); with OVCAR-8 it was 82.8 µM (inactive); with HCT-116 it was 25.2 µM (inactive). Also, the GI50 in the experiment with HT-29 is 62.5 µM (inactive).
On to `Cc1noc(-c2ccc(C(=O)O)[nH]2)c1Br`, for which the GI50 is 65 µM (inactive) with HCC 2998; 38.6 µM (inactive) in the experiment with SK-OV-3; > 100 µM (inactive) with MDA-MB-435; > 100 µM (inactive) in the experiment on BT-549; > 100 µM (inactive) in the experiment on CCRF-CEM; 38.3 µM (inactive) in the experiment on ACHN. In addition, the GI50 is > 100 µM (inactive) in the experiment on KM12; 34.2 µM (inactive) in the experiment with CAKI-1; 39.7 µM (inactive) with NCI-H522; > 100 µM (inactive) in the experiment with MDA-N; 68.9 µM (inactive) in the experiment with SW-620; 37.9 µM (inactive) with DU-145. For the same compound, the GI50 with NCI/ADR-RES was 50.5 µM (inactive); in the experiment with HOP-62, 22.5 µM (inactive); with COLO 205, 26.1 µM (inactive); in the experiment on OVCAR-8, 15.8 µM (inactive); with HCT-116 it was 45.6 µM (inactive); with HT-29 it was > 100 µM (inactive).
For the compound `C1CNCCNCCN1`, the GI50 in the experiment with HCC 2998, in the experiment with MDA-MB-435, with BT-549, in the experiment on CCRF-CEM, in the experiment with ACHN and in the experiment on KM12 was > 100 µM (inactive) in each case. Besides, the GI50 in the experiment with CAKI-1, in the experiment on LOX IMVI, in the experiment on NCI-H522, in the experiment with MDA-N, with SW-620 and in the experiment with DU-145 was > 100 µM (inactive) in each case. Further, the GI50 with NCI/ADR-RES, in the experiment with HOP-62, in the experiment on NCI-H226, in the experiment on COLO 205, in the experiment with OVCAR-8 and in the experiment on HCT-116 was > 100 µM (inactive) throughout. Besides, the GI50 with HT-29 is > 100 µM (inactive).
On to `C=CC1(CCC(Br)C(C)(C)Cl)CO1` (stereo not drawn), for which the GI50 in the experiment on HCC 2998, with SK-OV-3, in the experiment with MDA-MB-435, with BT-549, in the experiment on CCRF-CEM and in the experiment on ACHN was > 10 µM (inactive) each time. Moreover, the GI50 in the experiment with KM12, with CAKI-1, in the experiment on NCI-H522, with MDA-N, in the experiment on SW-620 and with DU-145 was > 10 µM (inactive) throughout. Also, the GI50 in the experiment with NCI/ADR-RES, with HOP-62, in the experiment with COLO 205, in the experiment on OVCAR-8, with HCT-116 and with HT-29 was > 10 µM (inactive) each time.
For `CC1CCC(=O)C(C(=O)CC2CC(=O)NC(=O)C2)C1` (stereo not drawn), the GI50 in the experiment on HCC 2998, with SK-OV-3, with MDA-MB-435, in the experiment with BT-549, in the experiment on CCRF-CEM and in the experiment with ACHN was > 100 µM (inactive) in each case. Besides, the GI50 in the experiment on KM12, in the experiment on CAKI-1, in the experiment on LOX IMVI, in the experiment with MDA-N, in the experiment on SW-620 and with DU-145 was > 100 µM (inactive) in each case. Besides, the GI50 in the experiment on NCI/ADR-RES, in the experiment with HOP-62, with NCI-H226, in the experiment on COLO 205, in the experiment with OVCAR-8 and with HCT-116 was > 100 µM (inactive) each time. For the same compound, in the experiment with HT-29, the GI50 is > 100 µM (inactive).
For `CN(C)CCCNC(=O)N/N=C/c1ccc([N+](=O)[O-])cc1`, the GI50 in the experiment on HCC 2998, in the experiment with SK-OV-3, in the experiment with MDA-MB-435, with BT-549, in the experiment with CCRF-CEM and in the experiment with ACHN was > 100 µM (inactive) throughout. Further, the GI50 was 95.3 µM (inactive) in the experiment on KM12; > 100 µM (inactive) with CAKI-1; > 100 µM (inactive) in the experiment on NCI-H522; 82.4 µM (inactive) with MDA-N; > 100 µM (inactive) in the experiment with SW-620; > 100 µM (inactive) in the experiment with DU-145. Moreover, the GI50 in the experiment with NCI/ADR-RES, in the experiment on HOP-62, in the experiment on NCI-H226, in the experiment with COLO 205, in the experiment with OVCAR-8 and in the experiment with HCT-116 was > 100 µM (inactive) in each case. In addition, in the experiment with HT-29, the GI50 was > 100 µM (inactive).
Regarding `CN(CCCNC(=O)c1nn(-c2ccc(Cl)cc2Cl)c2c1Cc1ccccc1-2)CCCNC(=O)c1nn(-c2ccc(Cl)cc2Cl)c2c1Cc1ccccc1-2`, the GI50 in the experiment with HCC 2998 was 1.64 µM (inactive); with SK-OV-3, 1.78 µM (inactive); in the experiment with MDA-MB-435, 1.48 µM (inactive); in the experiment on BT-549, 2.03 µM (inactive); in the experiment on CCRF-CEM it was 0.993 µM (active); in the experiment on ACHN, 1.67 µM (inactive). Moreover, the GI50 in the experiment with KM12 was 2.37 µM (inactive); with CAKI-1, 1.55 µM (inactive); with LOX IMVI it was 1.67 µM (inactive); in the experiment on NCI-H522, 1.43 µM (inactive); with MDA-N, 1.7 µM (inactive); in the experiment on SW-620, 1.48 µM (inactive). Moreover, the GI50 in the experiment with DU-145 was 1.77 µM (inactive); with NCI/ADR-RES, 1.87 µM (inactive); with HOP-62 it was 1.72 µM (inactive); in the experiment with COLO 205, 1.83 µM (inactive); with OVCAR-8, 1.81 µM (inactive); with HCT-116, 1.7 µM (inactive). Also, in the experiment on HT-29, the GI50 was 1.73 µM (inactive).
With `O=C(Cc1ccccc1)NNc1nc(NNC(=O)c2ccncc2)nc(Nc2ccc([N+](=O)[O-])cc2)n1`, the GI50 was > 10 µM (inactive) in the experiment with HCC 2998; > 10 µM (inactive) in the experiment with SK-OV-3; > 10 µM (inactive) in the experiment on MDA-MB-435; 9.51 µM (inactive) in the experiment on BT-549; 7.57 µM (inactive) in the experiment on CCRF-CEM; > 10 µM (inactive) with ACHN. Further, the GI50 in the experiment on KM12 was > 10 µM (inactive); in the experiment on CAKI-1, > 10 µM (inactive); in the experiment on LOX IMVI, > 10 µM (inactive); in the experiment with NCI-H522, > 10 µM (inactive); with MDA-N, 8.59 µM (inactive); in the experiment with SW-620, > 10 µM (inactive). For the same compound, the GI50 in the experiment on DU-145, in the experiment on NCI/ADR-RES, with HOP-62, in the experiment with COLO 205, in the experiment on OVCAR-8 and with HCT-116 was > 10 µM (inactive) throughout. For the same compound, the GI50 in the experiment on HT-29 is > 10 µM (inactive).

Values taken from ChEMBL document CHEMBL1201862, “PubChem BioAssay data set” (2004).
